Measured values from patent US20250195491A1 (AEVIS BIO, INC., priority 2022, published 2025).

Test system: iNOS and COX-2
Test: iNOS and COX-2 immunoblotting in LPS-stimulated RAW264.7 cells
Type: cell-based, mouse
Conditions: RAW264.7, 3.33, 10, or 30 μM, LPS 60 ng/ml 24 hours, FIG. 6A
Procedure: To confirm an oxidative stress suppression effect, the expression levels of iNOS and COX-2 were confirmed.
To this end, the RAW264.7 cell line, which is a mouse macrophage cell line, was purchased from the Korea Cell Line Bank (KCLB, Korea) and used, and cultured in a DMEM medium (Corning, MD, USA) supplemented with 10% fetal bovine serum (Corning, MD, USA), 100 U/mL of penicillin (Corning, MD, USA), and 100 100 μg/mL of streptomycin (Corning, MD, USA) at 37° C. in a 5% CO2 incubator.
After 1 hour, the cells were stimulated by treatment with 60 ng/ml of LPS, and further cultured for 24 hours. The cells were disrupted by adding a RIPA buffer containing a protease inhibitor cocktail (Thermo Fisher Scientific) and centrifuged at 14,000 rpm for 15 minutes at 4° C. to obtain a cell extract. Equal amounts of the cell extract were loaded, and proteins were separated through SDS-PAGE and then transferred to a PVDF film. The protein-transferred membrane was blocked using skim milk, incubated with a primary antibody for 3 hours at room temperature, and then incubated with an HRP-conjugated secondary antibody for 1 hour at room temperature.
The resulting product was washed with TBS-T three times between steps. […]

Nc1cccc2c1C(=S)N(C1CCC(=O)NC1=O)C2=O (stereo not shown) [3-MP, 3-thiopomalidomide]
expression of iNOS and COX-2 (protein): inhibits the expression of iNOS and COX-2
